Measured values published in PubChem BioAssay AID328 (DTP/NCI, 2004).
Where “and” joins values, the source holds several entries; their conditions need not be identical. Equal values may be shown once. Inconclusive results and toxic doses are left out.

System: BDF1 mice, P388 leukemia ip, median survival T/C
Assay: NCI In Vivo Anticancer Drug Screen. Data for tumor model P388 Leukemia (intraperitoneal) in B6D2F1 (BDF1) mice
Conditions: endpoint: median survival time, higher = longer survival
Outline: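 Read-out is survival of treated animals expressed relative to the vehicle group, as a T/C ratio.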

[1] = dose: 100.0 mg/kg/injection, schedule: Q01DX009 (ip), vehicle: saline with Tween-80
[2] = dose: 100.0 mg/kg/injection, schedule: Q04DX003 (ip), vehicle: saline with Tween-80
[3] = dose: 200.0 mg/kg/injection, schedule: Q01DX009 (ip), vehicle: saline with Tween-80
[4] = dose: 200.0 mg/kg/injection, schedule: Q04DX003 (ip), vehicle: saline with Tween-80
[5] = dose: 400.0 mg/kg/injection, schedule: Q04DX003 (ip), vehicle: saline with Tween-80
[6] = dose: 50.0 mg/kg/injection, schedule: Q01DX009 (ip), vehicle: saline with Tween-80
[7] = dose: 100.0 mg/kg/injection, schedule: Q01DX001 (ip), vehicle: saline with Tween-80
[8] = dose: 200.0 mg/kg/injection, schedule: Q01DX001 (ip), vehicle: saline with Tween-80
[9] = dose: 400.0 mg/kg/injection, schedule: Q01DX001 (ip), vehicle: saline with Tween-80
[10] = dose: 400.0 mg/kg/injection, schedule: Q01DX009 (ip), vehicle: saline with Tween-80
[11] = dose: 100.0 mg/kg/injection, schedule: Q04DX003 (ip), vehicle: Klucel (hydroxypropylcellulose) (HPC)
[12] = dose: 200.0 mg/kg/injection, schedule: Q04DX003 (ip), vehicle: Klucel (hydroxypropylcellulose) (HPC)
[13] = dose: 400.0 mg/kg/injection, schedule: Q04DX003 (ip), vehicle: Klucel (hydroxypropylcellulose) (HPC)
[14] = dose: 25.0 mg/kg/injection, schedule: Q04DX003 (ip), vehicle: Klucel (hydroxypropylcellulose) (HPC)
[15] = dose: 25.0 mg/kg/injection, schedule: Q01DX009 (ip), vehicle: saline with Tween-80
[16] = dose: 12.5 mg/kg/injection, schedule: Q01DX009 (ip), vehicle: saline with Tween-80

COc1cccc2c1C(=O)c1c(O)c3c(c(O)c1C2=O)C[C@@](O)(/C(C)=N/NC(=O)c1ccc(Cl)cc1)C[C@@H]3OC1CC(N)C(O)C(C)O1 (stereo not given in full)
T/C (dose: 0.5 mg/kg/injection, schedule: Q01DX009 (ip), vehicle: water): 110 % of control | T/C (dose: 1.0 mg/kg/injection, schedule: Q01DX009 (ip), vehicle: water): 107 % of control and 214 % of control | T/C (dose: 2.0 mg/kg/injection, schedule: Q01DX009 (ip), vehicle: water): 303 % of control | T/C (dose: 4.0 mg/kg/injection, schedule: Q01DX009 (ip), vehicle: water): 238 % of control and 115 % of control | T/C (dose: 8.0 mg/kg/injection, schedule: Q01DX009 (ip), vehicle: water): 164 % of control

O=C(O)c1c(C(=O)O)c(C(=O)O)c(C(=O)O)c(C(=O)O)c1C(=O)O
T/C (dose: 20.0 mg/kg/injection, schedule: Q01DX009 (ip), vehicle: saline): 107 % of control | T/C (dose: 40.0 mg/kg/injection, schedule: Q01DX009 (ip), vehicle: saline): 117 % of control | T/C (dose: 80.0 mg/kg/injection, schedule: Q01DX009 (ip), vehicle: saline): 98 % of control

CCCCCCSc1ncnc2nc[nH]c12
T/C [1]: 109 % of control | T/C [2]: 100 % of control | T/C [3]: 100 % of control | T/C [4]: 100 % of control | T/C [5]: 95 % of control

Cc1cc(N(CCO)CCO)c2ccc3cc4ccccc4cc3c2n1
T/C [6]: 119 % of control | T/C [1]: 116 % of control | T/C [3]: 94 % of control

CCOC(=O)CC(C)(N)NC(N)=O (stereo not given)
T/C [7]: 110 % of control | T/C [1]: 115 % of control | T/C (dose: 100.0 mg/kg/injection, schedule: Q04DX003 (ip), vehicle: alcohol): 110 % of control | T/C [8]: 95 % of control | T/C [3]: 105 % of control | T/C (dose: 200.0 mg/kg/injection, schedule: Q04DX003 (ip), vehicle: alcohol): 105 % of control | T/C [9]: 110 % of control | T/C [10]: 105 % of control | T/C (dose: 400.0 mg/kg/injection, schedule: Q04DX003 (ip), vehicle: alcohol): 110 % of control

CC(C)/[N+]([O-])=C/C=C/c1ccccc1
T/C [11]: 100 % of control | T/C [12]: 100 % of control | T/C [13]: 113 % of control

COC(=O)C(CSCSCc1ccccc1)NC(=O)C(CSCc1ccccc1)NC(=O)CCNC(=O)OCc1ccccc1 (stereo not given)
T/C (dose: 1.56 mg/kg/injection, schedule: Q04DX003 (ip), vehicle: Klucel (hydroxypropylcellulose) (HPC)): 101 % of control | T/C (dose: 3.13 mg/kg/injection, schedule: Q04DX003 (ip), vehicle: Klucel (hydroxypropylcellulose) (HPC)): 120 % of control | T/C (dose: 12.5 mg/kg/injection, schedule: Q04DX003 (ip), vehicle: Klucel (hydroxypropylcellulose) (HPC)): 101 % of control | T/C [14]: 111 % of control

Cc1nc[nH]c1[N+](=O)[O-]
T/C [15]: 100 % of control | T/C [1]: 86 % of control

CCOC(=O)C1OC1(C)c1ccccc1 (stereo not given)
T/C (dose: 75.0 mg/kg/injection, schedule: Q01DX009 (ip), vehicle: Klucel (hydroxypropylcellulose) (HPC)): 95 % of control | T/C [11]: 100 % of control and 103 % of control | T/C (dose: 150.0 mg/kg/injection, schedule: Q01DX009 (ip), vehicle: Klucel (hydroxypropylcellulose) (HPC)): 90 % of control | T/C [12]: 100 % of control and 111 % of control | T/C (dose: 300.0 mg/kg/injection, schedule: Q01DX009 (ip), vehicle: Klucel (hydroxypropylcellulose) (HPC)): 113 % of control | T/C [13]: 92 % of control and 104 % of control

CCOC1=Cc2c(oc3c(C(C)(C)C)cc(OCC)cc23)OC(C(C)(C)C)=C1
T/C (dose: 3.12 mg/kg/injection, schedule: Q01DX009 (ip), vehicle: saline with Tween-80): 112 % of control | T/C (dose: 6.25 mg/kg/injection, schedule: Q01DX009 (ip), vehicle: saline with Tween-80): 122 % of control | T/C [16]: 122 % of control | T/C [15]: 100 % of control and 121 % of control | T/C [6]: 101 % of control

COc1ccc(CN2COc3c(cc(C)c4cccnc34)C2)cc1
T/C [16]: 90 % of control | T/C [15]: 94 % of control | T/C [6]: 92 % of control

CC(C)CNS(=O)(=O)c1ncnc2nc[nH]c12
T/C [6]: 109 % of control | T/C [1]: 109 % of control

O=C1c2ccccc2C(=O)c2c(O)c(NCCCN3CCOCC3)cc(O)c21
T/C (dose: 50.0 mg/kg/injection, schedule: Q01DX005 (ip), vehicle: saline with Tween-80): 99 % of control | T/C (dose: 100.0 mg/kg/injection, schedule: Q01DX005 (ip), vehicle: saline with Tween-80): 94 % of control | T/C (dose: 200.0 mg/kg/injection, schedule: Q01DX005 (ip), vehicle: saline with Tween-80): 94 % of control

CC(C)(C)c1ccc(C(c2ccc(C(C)(C)C)cc2)C(Cl)Cl)cc1
T/C [11]: 91 % of control | T/C [12]: 91 % of control | T/C [13]: 95 % of control

CCOC(=O)CSc1nc2nc(Cl)c(Cl)nc2[nH]1
T/C (dose: 3.12 mg/kg/injection, schedule: Q04DX003 (ip), vehicle: saline with Tween-80): 112 % of control | T/C (dose: 6.25 mg/kg/injection, schedule: Q04DX003 (ip), vehicle: saline with Tween-80): 102 % of control | T/C (dose: 12.5 mg/kg/injection, schedule: Q04DX003 (ip), vehicle: saline with Tween-80): 100 % of control | T/C [15]: 88 % of control | T/C (dose: 25.0 mg/kg/injection, schedule: Q04DX003 (ip), vehicle: saline with Tween-80): 102 % of control | T/C [6]: 106 % of control | T/C (dose: 50.0 mg/kg/injection, schedule: Q04DX003 (ip), vehicle: saline with Tween-80): 95 % of control and 102 % of control | T/C [1]: 92 % of control | T/C [2]: 103 % of control | T/C [3]: 100 % of control | T/C [4]: 97 % of control | T/C [10]: 106 % of control | T/C [5]: 108 % of control

CCS(=O)(=O)c1cccc2nncn12
T/C [7]: 108 % of control | T/C [8]: 106 % of control | T/C [9]: 100 % of control

COC1=C[C@H](C)[C@H]2C[C@@H]3OC(=O)CC[C@@H]3C[C@]2(C)C1=O
T/C (dose: 2.0 mg/kg/injection, schedule: Q01DX009 (ip), vehicle: saline + alcohol): 115 % of control | T/C (dose: 4.0 mg/kg/injection, schedule: Q01DX009 (ip), vehicle: saline + alcohol): 106 % of control | T/C (dose: 8.0 mg/kg/injection, schedule: Q01DX009 (ip), vehicle: saline + alcohol): 106 % of control | T/C (dose: 16.0 mg/kg/injection, schedule: Q01DX009 (ip), vehicle: saline + alcohol): 103 % of control

COC(=O)C1C2C(C)CC3(CC12C)OCCO3 (stereo not given)
T/C [2]: 90 % of control | T/C [4]: 109 % of control | T/C [5]: 100 % of control

CC(C#N)(C#N)N=Nc1ccc(Cl)cc1Cl
T/C [1]: 116 % of control

COC(=O)C[CH2][Pb]([c]1ccccc1)([c]1ccccc1)[c]1ccccc1
T/C [15]: 106 % of control | T/C [6]: 98 % of control

NC(=S)Nc1cccc(Cl)c1
T/C [14]: 118 % of control | T/C (dose: 50.0 mg/kg/injection, schedule: Q04DX003 (ip), vehicle: Klucel (hydroxypropylcellulose) (HPC)): 104 % of control | T/C [11]: 104 % of control

O=c1cc(O)ccn1CC(O)c1ccc(Cl)s1 (stereo not given)
T/C [1]: 101 % of control and 111 % of control | T/C [2]: 109 % of control | T/C [3]: 92 % of control and 104 % of control | T/C [4]: 110 % of control | T/C [10]: 108 % of control and 113 % of control | T/C [5]: 119 % of control

CCCCOCN(COCCCC)c1ccc([N+](=O)[O-])cc1
T/C [6]: 106 % of control | T/C [1]: 104 % of control | T/C [3]: 100 % of control

CC(C)N1CCC(=O)NC1=O
T/C (dose: 25.0 mg/kg/injection, schedule: Q01DX001 (ip), vehicle: saline sonified): 104 % of control | T/C (dose: 50.0 mg/kg/injection, schedule: Q01DX001 (ip), vehicle: saline sonified): 104 % of control | T/C (dose: 100.0 mg/kg/injection, schedule: Q01DX001 (ip), vehicle: saline sonified): 100 % of control

O=[N+]([O-])c1ccc(S(=O)(=O)Nc2ccc(-c3ccccc3)cc2)cc1
T/C (dose: 100.0 mg/kg/injection, schedule: Q04DX003 (ip), vehicle: other): 96 % of control | T/C (dose: 200.0 mg/kg/injection, schedule: Q04DX003 (ip), vehicle: other): 104 % of control | T/C (dose: 400.0 mg/kg/injection, schedule: Q04DX003 (ip), vehicle: other): 100 % of control

Nc1ccc2cc(Cl)ccc2c1
T/C [1]: 90 % of control

CNS(=O)(=O)c1ccc2c(c1)nc(SC)n2C
T/C [2]: 100 % of control | T/C [4]: 100 % of control | T/C [5]: 104 % of control

Cc1onc(-c2ccccc2)c1C(=O)N1CCCN2C(=O)c3ccccc3C21 (stereo not given)
T/C [3]: 98 % of control
